# According to patent US12090147B2, “Combination therapy with 2-(4-chlorophenyl)-N-((2-(2,6-dioxopiperidin-3-yl)-1-oxoisoindolin-5-yl)methyl)-2,2-difluoroacetamide” (Celgene Corporation, priority 2019, dated 2024):
# Experiments:
# MV4-11 = assay: Caspase 8/FLICE activity colorimetric assay; assay type: cell-based, human; settings: compounds at 1 μM, 24, 48 and 72 hours
# Experimental: (§1) Next, tests were performed to see if caspase 8 activation alone is sufficient to mediate IL-1β induction. […] To ensure caspase 8 activity was captured at an appropriate time frame, caspase 8 activation levels at 24, 48 and 72 hours were measured (FIGS. 3C and 3D) using a caspase 8/FLICE activity colorimetric assay.
# ML-2 = assay: Caspase 8/FLICE activity colorimetric assay; assay type: cell-based, human; settings: compounds at 1 μM, 24, 48 and 72 hours
# Experimental: as §1
structure (smiles),measurement,setting,value
"O=C1CCC(N2Cc3cc(CNC(=O)C(F)(F)c4ccc(Cl)cc4)ccc3C2=O)C(=O)N1 (centres unmarked) [Compound 1, 2-(4-chlorophenyl)-N-((2-(2,6-dioxopiperidin-3-yl)-1-oxoisoindolin-5-yl)methyl)-2,2-difluoroacetamide]",Caspase 8 activation level,MV4-11,not the most efficient caspase 8 activating compound across all time points tested
same,Caspase 8 activation level,ML-2,not the most efficient caspase 8 activating compound across all time points tested
